Measurements published in publication doi:10.1101/2020.06.11.145995v1 (biorxiv, 2020).

Target: T1, C202S (C218S) mutant MKK7 kinase domain (Homo sapiens, UniProt O14733, C202S)
T1 sequence (O14733 1-419 C202S): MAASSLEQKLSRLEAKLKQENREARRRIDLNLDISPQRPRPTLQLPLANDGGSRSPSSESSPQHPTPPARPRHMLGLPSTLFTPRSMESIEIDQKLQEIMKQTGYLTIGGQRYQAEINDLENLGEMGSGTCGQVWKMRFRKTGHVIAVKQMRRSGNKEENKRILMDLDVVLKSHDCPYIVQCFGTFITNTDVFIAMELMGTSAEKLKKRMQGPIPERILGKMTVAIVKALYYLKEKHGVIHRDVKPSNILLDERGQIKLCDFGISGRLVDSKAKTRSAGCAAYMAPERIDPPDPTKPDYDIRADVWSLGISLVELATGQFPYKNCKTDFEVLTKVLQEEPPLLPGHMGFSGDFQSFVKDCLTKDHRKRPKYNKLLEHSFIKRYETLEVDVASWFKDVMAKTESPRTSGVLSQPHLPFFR
Conditions: binder

Row | ΔTm C202S [°C] | Compound
1 | 0.6 | O=C1NC(=O)C(=Cc2ccc3c(c2)OC(F)(F)O3)S1 [K00828, PI3Kg inhib II (528108)]
2 | 3.3 | Brc1c(Br)c(Br)c2[nH]nnc2c1Br [K00040, TBB (218697)]
3 | 3.5 | CCN1CCN(Cc2ccc(NC(=O)c3ccc(C)c(C=Cc4cnc5[nH]ccc5c4OC)c3)cc2C(F)(F)F)CC1 [K03427, HG-6-64-01]
4 | 4.9 | Cc1cc(Nc2cc(C3CC3)[nH]n2)nc(Nc2ccc(CC#N)cc2)n1 [ASC69]

Row | Compound | ΔTm C202S [°C]
5 | O=C1Nc2ccccc2/C1=C/c1c[nH]cn1 [K00007] | 2.3
